Where “and” joins values, the source holds several entries; their conditions need not be identical. Equal values may be shown once. Entries after “also recorded” stand apart in the source; their conditions may differ.
Key:
[1] = a-tocopheroxyl radical attenuating ability (TRAA) assay in micelles; format: biochemical; details: for TRAA, HTAC Micelle (positive) / TRAA, SDS Micelle (negative): 10 μM, relative rate constant of a-tocopheroxyl radical decay with/without sample, large = active
Procedure: The a-tocopheroxyl radical attenuating ability (TRAA) assay has been described in detail by Witting et al. (1997). Briefly, one hundred mM stock solutions of cetyltrimethyl ammonium chloride (HTAC) and sodium dodecyl sulphate (SDS) were prepared in phosphate buffer. Micellular dispersions of a-tocopherol were prepared by diluting an ethanolic solution of a-tocopherol (0.2 M) into micelles at a final vitamin concentration of […]. This resulting solution was sonicated for 15 sec at which time it was completely homogenous.
Aliquots of the a-tocopherol-containing micells were placed into the neck of an ESR flat cell […] and placed 0.5 m from a 125 W Osram HQL-Mercury fluorescent bulb used as a UV light source. To increase the light intensity, the frosted casing of the bulb was removed. Samples were irradiated for 3 min, followed by thorough mixing and subsequent transfer of the flat cell to the corresponding temperature-controlled Dewar insert in the ESR cavity, where the sample was allowed to equilibrate to 37° C. This procedure afforded a-tocopheroxyl radical (a-TO) between […] as estimated against a 10 mM TPDI nitroxide standard. ESR spectra were obtained at 9.41 GHz with modulation amplitude 1.0 G, microwave power […], and modulation frequency 12.5 kHz using a Bruker ESP 300 ESR spectrometer fitted with an X-band cavity.
After accumulation of the T=0 min spectrum, the flat cell arrangement containing a-TO was removed from the ESR cavity and the solution was gently coaxed into the neck of the flat cell under positive pressure. The compound of choice was then added to give a final concentration of 10 mM and the treated sample was replaced in the cavity and allowed to equilibrate to standard conditions, and sampling was resumed. The time-dependent decay of ESR signal intensity for a-TO was measured both in the presence and absence of the added co-antioxidant (10 mM) using a sweep time of 20.5 sec, averaging the output from three successive sweeps at each time point, and averaging the results of three separate experiments.
Results are expressed as the relative rate constant of decay of a-tocopheroxyl radicals in the presence of the test sample divided by the relative rate constant of decay of a-tocopheroxyl radicals in the absence of the test sample. TRAA approaching unity is considered to have poor synergistic activity, whereas active compounds show large values because they eliminate the a-tocopheroxyl radicals immediately upon mixing. Ascorbate was used as a positive control.

rat thoracic aorta = assay: Contractile curves to noradrenaline in rat isolated aortic rings (Protocol 1); details: for dose dependency of the antagonising action on noradrenaline contraction: 0.1 and 1 μg/ml; for antagonising the contractile response to noradrenaline (in words): order of potency at 1 μg/ml; for y max, Noradrenaline + Test compound (B): mean ± SEM; for y max Difference (A − B): noradrenaline alone minus noradrenaline + compound
Procedure: Male Sprague-Dawley rats (250±50 g) were gassed with 80% CO2 and 20% O2 until killed. The thoracic aorta was excised and quickly placed in ice-cold Krebs modified solution composed of NaCl […], […] 4.7 mM, MgSO4 7H2O 1.17 mM, NaHCO3 25 mM, KH2PO4 1.18 mM, CaCl2 2.5 mM, glucose 11 mM and EDTA 0.03 mM. It was then trimmed of fat and connective tissue and cut into 2-3 mm wide rings. Each ring was mounted on two parallel stainless steel hooks in a single water-jacketed 3 ml organ bath containing modified Krebs solution maintained at 37° C. and bubbled with 95% O2 plus 5% CO2. The lower hook was attached to a movable support leg and the upper hook to an FTO3 force transducer (Grass Scientific Instruments, Mitutoyo, Japan) for isometric recordings. Changes in force were amplified (Quadbridge amplifier, Scientific Concepts Inc., Victoria, Australia) and recorded on a MacLab 8E data acquisition system (Adinstruments Pty Ltd., NSW, Australia) linked to an Apple computer (Apple Computer Inc, Cupertina, Calif.). Rings were set at an initial tension of 2 g and allowed to equilibrate for 30 minutes after which time they were re-set to 2 g tension before the commencement of each experimental protocol.
Full concentration-contractile curves were obtained to noradrenaline (0.1 nM-[…]) in the absence and presence of β-estradiol (1 μg/ml); Cpd. 5 (0.1 and 1 μg/ml); Cpd. 7 (0.1 and 1 μg/ml); Cpd. 8 (0.1 and 1 μg/ml) and Cpd. 12 (1 μg/ml) and the vehicle equi-volume DMSO. Only one compound at any one concentration was tested on any one ring from any one animal.
Contractile responses are expressed in g tension (mean+standard error of the mean). Dilatory responses are expressed as a percentage of the contractile force generated by the pre-constricting agent used. Individual concentration-response curves for noradrenaline and acetylcholine±the interventions used were fitted to a logistic equation of the form […] where E is the response, M is the maximum response and K is the concentration eliciting 50% of the maximum response (ie neg log EC50).

LDL receptor = LDL receptor expression on HepG2 cells, [125I]-LDL specific binding; format: cell-based, human; details: for LDL receptor expression, Experiment 3 / LDL receptor expression, Experiment 2 / LDL receptor expression, Experiment 1: 48 hours; for LDL receptor expression, Experiment 3: control 130 ± 18; for LDL receptor expression, Experiment 2: control 261 ± 57; for LDL receptor expression, Experiment 1: control 283 ± 32; for effect on LDL binding / LDL receptor expression over control (in words): HepG2
Procedure: Confluent human hepatoma (HepG2) cells were preincubated in the absence or presence of the test compound (Cpd. 7, Cpd. 8 and Cpd. 12 at final concentration of 50 nM, 500 nM and […]) for 48 hours, in complete DMEM medium containing 10% fetal bovine serum (FBS). Serum deprivation (i.e. 0.5% FBS) was used as a positive control to induce LDL receptor expression. Following preincubation, cells were washed before […] of [^125I]-LDL (specific activity 6.5-29.5 cpm/fmol) was added and the cells incubated at 4° C. for another 4 hours in the absence (for total binding) and presence of […] unlabelled LDL (to assess non-specific binding). Cells were then washed, lysed (0.1 M NaOH), and the radioactivity and protein content (BCA assay) of the lysate determined. The number of LDL receptors was determined from the specific binding (total binding minus non-specific binding), assuming one molecule of LDL binds per LDL receptor. Three independent experiments (each in triplicate) were performed with different batches of cells and [^125I]-LDL.
To determine the concentration of LDL needed to reach binding saturation, confluent HepG2 cells were incubated in 12-well plates with increasing concentrations of [^125I]-LDL in the presence of excess (i.e., […]) unlabelled LDL. […] Using this concentration, the time required to reach saturation binding at 4° C. was determined to be approximately 4 hours. These established optimal conditions were used for all subsequent binding assays.

Row | Compound | TRAA, HTAC Micelle (positive) [1] | dose dependency of the antagonising action on noradrenaline contraction (rat thoracic aorta) | antagonising the contractile response to noradrenaline (in words) (rat thoracic aorta) | y max, Noradrenaline + Test compound (B) (rat thoracic aorta; test compound 0.1 μg/ml) | y max Difference (A − B) (rat thoracic aorta; test compound 0.1 μg/ml) | y max, Noradrenaline + Test compound (B) (rat thoracic aorta; test compound 1 μg/ml) | y max Difference (A − B) (rat thoracic aorta; test compound 1 μg/ml) | LDL receptor expression, Experiment 3 (LDL receptor; 50 nM) | LDL receptor expression, Experiment 2 (LDL receptor; 50 nM) | LDL receptor expression, Experiment 1 (LDL receptor; 50 nM, mean ± SD, n = 3) | LDL receptor expression, Experiment 3 (LDL receptor; 500 nM) | LDL receptor expression, Experiment 2 (LDL receptor; 500 nM) | LDL receptor expression, Experiment 1 (LDL receptor; 500 nM) | effect on LDL binding / LDL receptor expression over control (in words) (LDL receptor) | TRAA, SDS Micelle (negative) [1] | elimination of a-tocopheroxyl radicals (in words) [1]
1 | O=C1c2ccc(O)cc2OCC1c1ccc(O)cc1 (centres unmarked) [Cpd. 5] | 5.3 and 5.4 | dose dependent | active but less potent than β-estradiol; also recorded: equipotent but less potent than Cpd. 12 | 1.50 ± 0.32 g tension | 0.81 ± 0.25 g tension | 1.13 ± 0.20 g tension | 1.02 ± 0.24 g tension |  |  |  |  |  |  |  |  | 
2 | Oc1ccc(C2COc3cc(O)ccc3C2O)cc1 (centres unmarked) [Cpd. 7] | 1.4 ± 0.5 | dose dependent | active but less potent than β-estradiol; also recorded: equipotent but less potent than Cpd. 12 | 1.41 ± 0.13 g tension | 0.25 ± 0.25 g tension | 1.26 ± 0.34 g tension | 1.38 ± 0.27 g tension | 159 ± 30 fmol LDL receptors per mg cell protein | 239 ± 49 fmol LDL receptors per mg cell protein | 299 ± 45 fmol LDL receptors per mg cell protein | 171 ± 14 fmol LDL receptors per mg cell protein | 199 ± 58 fmol LDL receptors per mg cell protein | 281 ± 22 fmol LDL receptors per mg cell protein | increased LDL binding | 1.9 ± 0.2 | 
3 | Oc1ccc(C2COc3cc(O)ccc3C2O)cc1 (centres unmarked) [Cpd. 8] | 2.37 | dose dependent | active but less potent than β-estradiol; also recorded: the least potent | 1.34 ± 1.20 g tension | 0.56 ± 0.15 g tension | 0.86 ± 0.31 g tension | 0.69 ± 0.28 g tension | 152 ± 24 fmol LDL receptors per mg cell protein | 291 ± 66 fmol LDL receptors per mg cell protein | 273 ± 22 fmol LDL receptors per mg cell protein | 193 ± 18 fmol LDL receptors per mg cell protein | 291 ± 52 fmol LDL receptors per mg cell protein | 312 ± 42 fmol LDL receptors per mg cell protein | increased LDL binding | 1.26 and 1.58 | 
4 | Oc1ccc(C2=Cc3ccc(O)cc3OC2)cc1 [Cpd. 12] | 26.77 and 25.70 |  | comparable to β-estradiol; also recorded: most effective and comparable to 170-estradiol |  |  | 0.80 ± 0.36 g tension | 2.27 ± 0.68 g tension | 156 ± 24 fmol LDL receptors per mg cell protein | 134 ± 52 fmol LDL receptors per mg cell protein | 319 ± 43 fmol LDL receptors per mg cell protein | 136 ± 23 fmol LDL receptors per mg cell protein | 233 ± 40 fmol LDL receptors per mg cell protein | 311 ± 35 fmol LDL receptors per mg cell protein | without consistent effect | Almost immediate | induced high rate of decay and was active at eliminating a-tocopheroxyl radicals
